Results: patent US20250129084A1, “Compounds” (GlaxoSmithKline Intellectual Property Development Limited, priority 2022, published 2025)
In brackets after ≈: the same amount, converted by molar mass. Where two headings read alike, the source gives them in different places.

Legend:
[1] = biological target: T1, Mycobacterium tuberculosis lysine tRNA synthetase (MtKRS) (Mycobacterium tuberculosis, UniProt P9WFU9); test: biochemical; details: 40 nM MtKRS, 30 μM ATP, 12 μM L-lysine, 20 hours incubation; read-out: Assay 1 Mtb KRS
T1 construct: made in house; host or cells: E. coli BL21 (DE3)

[2] = tested on: Mycobacterium tuberculosis H37Rv; test: Mycobacterium tuberculosis in vitro H37Rv extracellular inhibition assay (OD readout); type: cell-based; details: 192 h, read-out: Assay 2 MIC (μM) extracellular
[3] = tested on: Mycobacterium tuberculosis H37Rv in human macrophages THP-1; test: Mycobacterium tuberculosis in vitro H37Rv in human macrophages THP-1 inhibition assay (intracellular assay); type: cell-based; details: read-out: Assay 3 MIC (μM) intracellular
Text: Assay 3 Mycobacterium tuberculosis In Vitro H37Rv in Human Macrophages THP-1 Inhibition Assay
This ex-vivo assay may represent physiological conditions that mimic disease and take into consideration the favourable contribution of host cells.

[4] = tested on: Mycobacterium tuberculosis H37Rv; test: Acute Mycobacterium tuberculosis in vivo assay
[5] = H37Rv in THP-1 human macrophages

T1 sequence (P9WFU9 whole entry): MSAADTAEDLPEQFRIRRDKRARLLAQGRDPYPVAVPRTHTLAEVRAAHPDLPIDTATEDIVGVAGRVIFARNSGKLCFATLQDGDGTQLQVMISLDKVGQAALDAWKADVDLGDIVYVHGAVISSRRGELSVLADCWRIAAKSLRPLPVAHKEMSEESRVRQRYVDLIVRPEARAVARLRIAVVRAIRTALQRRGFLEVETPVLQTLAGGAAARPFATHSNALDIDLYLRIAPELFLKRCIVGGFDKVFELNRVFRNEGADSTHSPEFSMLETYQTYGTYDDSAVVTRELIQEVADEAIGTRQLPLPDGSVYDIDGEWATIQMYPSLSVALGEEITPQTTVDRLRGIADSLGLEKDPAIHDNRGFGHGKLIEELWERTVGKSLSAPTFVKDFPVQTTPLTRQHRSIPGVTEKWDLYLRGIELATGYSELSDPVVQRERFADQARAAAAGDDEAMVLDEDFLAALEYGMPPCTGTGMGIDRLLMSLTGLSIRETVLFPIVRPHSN

In the case of CCOc1cnn(-c2nc(N)nc3c2C(=O)N([C@H]2CCCCC2(F)F)C3)c1 [Example 54, (S)-2-amino-6-(2,2-difluorocyclohexyl)-4-(4-ethoxy-1H-pyrazol-1-yl)-6,7-dihydro-5H-pyrrolo[3,4-d]pyrimidin-5-one], the IC50 [1] is reported as 200 nM.
Compound Nc1nc2c(c(-n3cccn3)n1)C(=O)N([C@H]1[C@@H](O)CCCCC1(F)F)C2 [Example 52, 2-Amino-6-((1S,7S)-2,2-difluoro-7-hydroxycycloheptyl)-4-(1H-pyrazol-1-yl)-6,7-dihydro-5H-pyrrolo[3,4-d]pyrimidin-5-one] has an IC50 [1] of 80 nM, an MIC ([2]; H37Rv, 7H9 medium, 8 days, Abs 590 nm) of 0.1 µM (≈ 0.0364 µg/mL) and an MIC [3, 5] of 0.06 µM (≈ 0.0219 µg/mL). For the same compound, the “CFU reduction @12 mg/kg (acute efficacy study)” value ([4]; C57BL/6 mice, 12 mg/kg oral once a day, day 1 to day 8) was 0.4 (CFU reduction.
With CNc1nc(N)nc2c1C(=O)N([C@H]1[C@@H](O)CCCCC1(F)F)C2 [Example 51, 2-Amino-6-((1S,7S)-2,2-difluoro-7-hydroxycycloheptyl)-4-(methylamino)-6,7-dihydro-5H-pyrrolo[3,4-d]pyrimidin-5-one] the IC50 [1] was 200 nM, the MIC ([2]; H37RV) was 1 µM (≈ 0.327 µg/mL) and the MIC ([3]; H37RV) was 0.3 µM (≈ 0.0982 µg/mL).
With CCOc1nc(N)nc2c1C(=O)N([C@@H]1CCCCC[C@@H]1O)C2 [Example 46, 2-Amino-4-ethoxy-6-((1R,2S)-2-hydroxycycloheptyl)-6,7-dihydro-5H-pyrrolo[3,4-d]pyrimidin-5-one] the MIC ([2]; H37RV) was 0.5 µM (≈ 0.153 µg/mL), the MIC ([3]; H37RV) was 1.1 µM (≈ 0.337 µg/mL) and the “Log PCR reduction in acute efficacy study @ 50 mg/kg” value ([4]; C57BL/6 mice, 50 mg/kg oral once a day, day 1 to day 8) was 3. For the same compound, the “Assay 4 ED99” value ([4]; female C57BL/6 mice, intratracheal infection, oral once a day day 1 to day 8, lungs harvested day 9) was 7 mg/kg.
With CCOc1cnn(-c2nc(N)nc3c2C(=O)N([C@@H]2CCCC[C@@H]2O)C3)c1 [Example 53, 2-amino-4-(4-ethoxy-1H-pyrazol-1-yl)-6-((1R,2S)-2-hydroxycyclohexyl)-6,7-dihydro-5H-pyrrolo[3,4-d]pyrimidin-5-one] the IC50 [1] was 300 nM and the MIC [3, 5] was 0.3 µM (≈ 0.108 µg/mL).
